Test results taken from ChEMBL document CHEMBL1687752, “Impact of antifungal prophylaxis on colonization and azole susceptibility of Candida species” (2009).
Values after ≈ are worked out from the molar mass of the structure shown.

Experiments:
Format in all cases: functional
[1] = tested on: Nakaseomyces glabratus; assay: Antifungal activity against 7 days cultured Candida glabrata isolated from neutropenic subject with AML or MDS stool receiving antifungal therapy for 37 days after 9 days of prophylaxis by broth microdilution method
[2] = tested on: Nakaseomyces glabratus; assay: Antifungal activity against 56 days cultured Candida glabrata isolated from HSCT recipient with acute or chronic GVHD mouth receiving antifungal therapy for 172 days after 114 days of prophylaxis by broth microdilution method
[3] = tested on: Nakaseomyces glabratus; assay: Antifungal activity against Candida glabrata isolated from HSCT recipients with acute or chronic GVHD receiving fluconazole assessed as maximum MIC by broth microdilution method
[4] = tested on: Nakaseomyces glabratus; assay: Antifungal activity against 23 days cultured Candida glabrata isolated from neutropenic subject with AML or MDS stool receiving antifungal therapy for 25 days after 3 days of prophylaxis by broth microdilution method
[5] = tested on: Candida tropicalis; assay: Antifungal activity against -3 days cultured Candida tropicalis isolated from neutropenic subject with AML or MDS pharynx receiving antifungal therapy for 45 days after 24 days of prophylaxis by broth microdilution method
[6] = tested on: Candida tropicalis; assay: Antifungal activity against 2 days cultured Candida tropicalis isolated from neutropenic subject with AML or MDS pharynx receiving antifungal therapy for 45 days after 24 days of prophylaxis by broth microdilution method
[7] = tested on: Nakaseomyces glabratus; assay: Antifungal activity against 25 days cultured Candida glabrata isolated from invasive fungal infected subject blood receiving antifungal therapy for 25 days after 3 days of prophylaxis by broth microdilution method
[8] = tested on: Nakaseomyces glabratus; assay: Antifungal activity against Candida glabrata isolated from HSCT recipients with acute or chronic GVHD receiving posaconazole assessed as maximum MIC by broth microdilution method
[9] = tested on: Nakaseomyces glabratus; assay: Antifungal activity against 176 days cultured Candida glabrata isolated from HSCT recipient with acute or chronic GVHD mouth receiving antifungal therapy for 172 days after 114 days of prophylaxis by broth microdilution method
[10] = tested on: Saccharomyces cerevisiae; assay: Antifungal activity against Saccharomyces cerevisiae isolated from HSCT recipient 513 with acute or chronic GVHD mouth after 112 days prophylaxis by broth microdilution method
[11] = tested on: Nakaseomyces glabratus; assay: Antifungal activity against Candida glabrata isolated from HSCT recipient 491 with acute or chronic GVHD mouth receiving antifungal drug after 112 days prophylaxis by broth microdilution method
[12] = tested on: Pichia kudriavzevii; assay: Antifungal activity against 14 days cultured Candida krusei isolated from neutropenic subject with AML or MDS pharynx after 12 days of prophylaxis by broth microdilution method
[13] = tested on: Nakaseomyces glabratus; assay: Antifungal activity against -2 days cultured Candida glabrata isolated from HSCT recipient with acute or chronic GVHD mouth receiving antifungal therapy for 168 days after 113 days of prophylaxis by broth microdilution method
[14] = tested on: Candida albicans; assay: Antifungal activity against Candida albicans isolated from HSCT recipient 928 with acute or chronic GVHD mouth after 112 days prophylaxis by broth microdilution method
[15] = tested on: Candida albicans; assay: Antifungal activity against Candida albicans isolated from HSCT recipients with acute or chronic GVHD receiving fluconazole assessed as maximum MIC by broth microdilution method
[16] = tested on: Nakaseomyces glabratus; assay: Antifungal activity against Candida glabrata isolated from neutropenic subject 1491 with AML or MDS pharynx receiving antifungal drug after 23 days prophylaxis by broth microdilution method; conditions: 552 h
[17] = tested on: Pichia kudriavzevii; assay: Antifungal activity against Candida krusei isolated from neutropenic subjects with AML or MDS prior to initiation of fluconazole therapy assessed as maximum MIC by broth microdilution method
[18] = tested on: Nakaseomyces glabratus; assay: Antifungal activity against 12 days cultured Candida glabrata isolated from HSCT recipient with acute or chronic GVHD mouth receiving antifungal therapy for 143 days after 116 days of prophylaxis by broth microdilution method
[19] = tested on: Nakaseomyces glabratus; assay: Antifungal activity against 36 days cultured Candida glabrata isolated from neutropenic subject with AML or MDS pharynx after 48 days of prophylaxis by broth microdilution method
[20] = tested on: Nakaseomyces glabratus; assay: Antifungal activity against 10 days cultured Candida glabrata isolated from neutropenic subject with AML or MDS stool receiving antifungal therapy for 37 days after 9 days of prophylaxis by broth microdilution method
[21] = tested on: Candida albicans; assay: Antifungal activity against Candida albicans isolated from HSCT recipients with acute or chronic GVHD prior to initiation of fluconazole therapy by broth microdilution method
[22] = tested on: Nakaseomyces glabratus; assay: Antifungal activity against Candida glabrata isolated from HSCT recipient 975 with acute or chronic GVHD mouth receiving antifungal drug after 112 days prophylaxis by broth microdilution method
[23] = tested on: Candida albicans; assay: Antifungal activity against Candida albicans isolated from neutropenic subjects with AML or MDS prior to initiation of posaconazole therapy by broth microdilution method
[24] = tested on: Nakaseomyces glabratus; assay: Antifungal activity against Candida glabrata isolated from HSCT recipient 270 with acute or chronic GVHD mouth receiving antifungal drug after 108 days prophylaxis by broth microdilution method
[25] = tested on: Nakaseomyces glabratus; assay: Antifungal activity against 43 days cultured Candida glabrata isolated from HSCT recipient with acute or chronic GVHD mouth receiving antifungal therapy for 168 days after 113 days of prophylaxis by broth microdilution method
[26] = tested on: Nakaseomyces glabratus; assay: Antifungal activity against Candida glabrata isolated from HSCT recipient 186 with acute or chronic GVHD mouth after 112 days prophylaxis by broth microdilution method
[27] = tested on: Nakaseomyces glabratus; assay: Antifungal activity against Candida glabrata isolated from neutropenic subjects with AML or MDS receiving posaconazole assessed as maximum MIC by broth microdilution method
[28] = tested on: Nakaseomyces glabratus; assay: Antifungal activity against Candida glabrata isolated from neutropenic subjects with AML or MDS receiving fluconazole by broth microdilution method
[29] = tested on: Nakaseomyces glabratus; assay: Antifungal activity against Candida glabrata isolated from neutropenic subject 1102 with AML or MDS stool after 26 days prophylaxis by broth microdilution method; conditions: 624 h
[30] = tested on: Nakaseomyces glabratus; assay: Antifungal activity against Candida glabrata isolated from HSCT recipient 270 with acute or chronic GVHD mouth after 108 days prophylaxis by broth microdilution method
[31] = tested on: Pichia kudriavzevii; assay: Antifungal activity against 16 days cultured Candida krusei isolated from neutropenic subject with AML or MDS stool receiving antifungal therapy for 19 days after 6 days of prophylaxis by broth microdilution method
[32] = tested on: Nakaseomyces glabratus; assay: Antifungal activity against Candida glabrata isolated from neutropenic subject 1491 with AML or MDS pharynx after 23 days prophylaxis by broth microdilution method; conditions: 552 h
[33] = tested on: Candida albicans; assay: Antifungal activity against Candida albicans isolated from HSCT recipients with acute or chronic GVHD prior to initiation of fluconazole therapy assessed as maximum MIC by broth microdilution method
[34] = tested on: Nakaseomyces glabratus; assay: Antifungal activity against Candida glabrata isolated from HSCT recipients with acute or chronic GVHD prior to initiation of posaconazole therapy by broth microdilution method
[35] = tested on: Pichia kudriavzevii; assay: Antifungal activity against 19 days cultured Candida krusei isolated from invasive fungal infected subject blood receiving antifungal therapy for 19 days after 6 days of prophylaxis by broth microdilution method
[36] = tested on: Candida albicans; assay: Antifungal activity against Candida albicans isolated from HSCT recipient 262 with acute or chronic GVHD mouth receiving antifungal drug after 115 days prophylaxis by broth microdilution method
[37] = tested on: Nakaseomyces glabratus; assay: Antifungal activity against 1 day cultured Candida glabrata isolated from HSCT recipient with acute or chronic GVHD mouth receiving antifungal therapy for 143 days after 116 days of prophylaxis by broth microdilution method
[38] = tested on: Nakaseomyces glabratus; assay: Antifungal activity against 3 days cultured Candida glabrata isolated from neutropenic subject with AML or MDS stool receiving antifungal therapy for 25 days after 3 days of prophylaxis by broth microdilution method
[39] = tested on: Candida albicans; assay: Antifungal activity against Candida albicans isolated from HSCT recipients with acute or chronic GVHD receiving fluconazole by broth microdilution method

Compound: OC(Cn1cncn1)(Cn1cncn1)c1ccc(F)cc1F [FLUCONAZOLE]
- MIC [1]: 8 µg/mL (≈ 26.1 µM)
- MIC [2]: 4 µg/mL (≈ 13.1 µM)
- MIC [3]: 64 µg/mL
- MIC [4]: 4 µg/mL (≈ 13.1 µM)
- MIC [5]: 0.5 µg/mL (≈ 1.63 µM)
- MIC [6]: 0.25 µg/mL (≈ 0.816 µM)
- MIC [7]: 8 µg/mL (≈ 26.1 µM)
- MIC [8]: 64 µg/mL
- MIC [9]: 32 µg/mL (≈ 104 µM)
- MIC [10]: 8 µg/mL (≈ 26.1 µM)
- MIC [11]: 32 µg/mL (≈ 104 µM)
- MIC [12]: 64 µg/mL (≈ 209 µM)
- MIC [13]: 64 µg/mL (≈ 209 µM)
- MIC [14]: < 0.125 µg/mL
- MIC [15]: 64 µg/mL
- MIC [16]: > 64 µg/mL
- MIC [17]: 32 µg/mL
- MIC [18]: 64 µg/mL (≈ 209 µM)
- MIC [19]: 8 µg/mL (≈ 26.1 µM)
- MIC [20]: 8 µg/mL (≈ 26.1 µM)
- MIC50 [21]: 0.25 µg/mL (≈ 0.816 µM)
- MIC90 [21]: 1 µg/mL (≈ 3.27 µM)
- MIC [22]: 128 µg/mL (≈ 418 µM)
- MIC50 [23]: 0.25 µg/mL (≈ 0.816 µM)
- MIC90 [23]: 0.25 µg/mL (≈ 0.816 µM)
- MIC [24]: 8 µg/mL (≈ 26.1 µM)
- MIC [25]: 64 µg/mL (≈ 209 µM)
- MIC [26]: 8 µg/mL (≈ 26.1 µM)
- MIC [27]: 64 µg/mL
- MIC50 [28]: 4 µg/mL (≈ 13.1 µM)
- MIC90 [28]: 16 µg/mL (≈ 52.2 µM)
- MIC [29]: 4 µg/mL (≈ 13.1 µM)
- MIC [30]: 8 µg/mL (≈ 26.1 µM)
- MIC [31]: 64 µg/mL (≈ 209 µM)
- MIC [32]: 4 µg/mL (≈ 13.1 µM)
- MIC [33]: 16 µg/mL
- MIC50 [34]: 16 µg/mL (≈ 52.2 µM)
- MIC90 [34]: 64 µg/mL (≈ 209 µM)
- MIC [35]: 32 µg/mL (≈ 104 µM)
- MIC [36]: 2 µg/mL (≈ 6.53 µM)
- MIC [37]: 16 µg/mL (≈ 52.2 µM)
- MIC [38]: 8 µg/mL (≈ 26.1 µM)
- MIC50 [39]: 1 µg/mL (≈ 3.27 µM)
- MIC90 [39]: 64 µg/mL (≈ 209 µM)

Compound: CCC(C)n1ncn(-c2ccc(N3CCN(c4ccc(OCC5COC(Cn6cncn6)(c6ccc(Cl)cc6Cl)O5)cc4)CC3)cc2)c1=O (stereo not drawn) [ITRACONAZOLE]
- MIC [1]: 1 µg/mL (≈ 1.42 µM)
- MIC [2]: 0.5 µg/mL (≈ 0.709 µM)
- MIC [3]: 32 µg/mL
- MIC [4]: 0.125 µg/mL (≈ 0.177 µM)
- MIC [5]: 0.03 µg/mL (≈ 0.0425 µM)
- MIC [6]: 0.03 µg/mL (≈ 0.0425 µM)
- MIC [7]: 2 µg/mL (≈ 2.83 µM)
- MIC [8]: 8 µg/mL
- MIC [9]: 8 µg/mL (≈ 11.3 µM)
- MIC [10]: 0.5 µg/mL (≈ 0.709 µM)
- MIC [11]: 2 µg/mL (≈ 2.83 µM)
- MIC [12]: 0.25 µg/mL (≈ 0.354 µM)
- MIC [13]: 1 µg/mL (≈ 1.42 µM)
- MIC [14]: < 0.015 µg/mL
- MIC [15]: 16 µg/mL
- MIC [16]: 8 µg/mL (≈ 11.3 µM)
- MIC [17]: 0.5 µg/mL
- MIC [18]: 4 µg/mL (≈ 5.67 µM)
- MIC [19]: 1 µg/mL (≈ 1.42 µM)
- MIC [20]: 2 µg/mL (≈ 2.83 µM)
- MIC50 [21]: 0.03 µg/mL (≈ 0.0425 µM)
- MIC90 [21]: 0.06 µg/mL (≈ 0.085 µM)
- MIC [22]: 8 µg/mL (≈ 11.3 µM)
- MIC50 [23]: 0.015 µg/mL (≈ 0.0213 µM)
- MIC90 [23]: 0.03 µg/mL (≈ 0.0425 µM)
- MIC [24]: 1 µg/mL (≈ 1.42 µM)
- MIC [25]: 2 µg/mL (≈ 2.83 µM)
- MIC [26]: 0.5 µg/mL (≈ 0.709 µM)
- MIC [27]: 8 µg/mL
- MIC50 [28]: 0.5 µg/mL (≈ 0.709 µM)
- MIC90 [28]: 2 µg/mL (≈ 2.83 µM)
- MIC [29]: 1 µg/mL (≈ 1.42 µM)
- MIC [30]: 0.125 µg/mL (≈ 0.177 µM)
- MIC [31]: 0.25 µg/mL (≈ 0.354 µM)
- MIC [32]: 1 µg/mL (≈ 1.42 µM)
- MIC [33]: 0.06 µg/mL
- MIC50 [34]: 1 µg/mL (≈ 1.42 µM)
- MIC90 [34]: 8 µg/mL (≈ 11.3 µM)
- MIC [35]: 0.25 µg/mL (≈ 0.354 µM)
- MIC [36]: 0.06 µg/mL (≈ 0.085 µM)
- MIC [37]: 1 µg/mL (≈ 1.42 µM)
- MIC [38]: 1 µg/mL (≈ 1.42 µM)
- MIC50 [39]: 0.03 µg/mL (≈ 0.0425 µM)
- MIC90 [39]: 16 µg/mL (≈ 22.7 µM)
